{
  "source": "patent US8097440B1",
  "about": "“Engineered microorganisms capable of producing target compounds under anaerobic conditions” (Gevo, Inc., priority 2008, dated 2012)",
  "key": {"[1]": {"biological_target": "T1, E. coli KARI Ec_IlvC variant Ec_IlvC^2H10-his6 (A71S, R76D, S78D, Q110A), SEQ ID NO: 31 (Escherichia coli, UniProt P05793, A71S/Q110A/R76D/S78D)", "T1 construct": "T37 values cited for the gene on pGV1976", "T1 sequence (P05793 with tags, fused parts or gaps A71S/R76D/S78D/Q110A)": "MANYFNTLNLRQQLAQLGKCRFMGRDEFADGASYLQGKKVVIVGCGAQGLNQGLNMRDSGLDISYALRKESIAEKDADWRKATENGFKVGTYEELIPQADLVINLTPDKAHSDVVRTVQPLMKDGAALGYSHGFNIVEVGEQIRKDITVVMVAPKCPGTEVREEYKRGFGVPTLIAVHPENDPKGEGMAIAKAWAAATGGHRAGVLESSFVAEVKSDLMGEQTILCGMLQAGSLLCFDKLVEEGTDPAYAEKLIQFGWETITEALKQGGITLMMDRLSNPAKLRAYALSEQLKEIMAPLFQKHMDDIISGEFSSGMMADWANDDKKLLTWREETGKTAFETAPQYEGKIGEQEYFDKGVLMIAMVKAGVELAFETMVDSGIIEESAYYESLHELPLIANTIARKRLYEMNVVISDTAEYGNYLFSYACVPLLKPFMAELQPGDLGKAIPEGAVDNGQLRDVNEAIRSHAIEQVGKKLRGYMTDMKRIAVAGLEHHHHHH", "assay": "KARI assay, purified Ec_IlvC^2H10-his6", "assay_type": "biochemical", "conditions": "acetolactate as substrate", "experimental": "KARI cuvette assay: KARI activity was assayed kinetically by monitoring the decrease in NAD(P)H concentration by measuring the absorbance at 340 nm. A reaction buffer was prepared containing 250 mM potassium phosphate pH 7, 1 mM DTT and 10 mM MgCl2. Cell pellets were resuspended (0.25 g wet weight/mL buffer) in 250 mM potassium phosphate (KPi) buffer containing 1 mM DTT and 10 mM MgCl2. The resuspended cells were lysed by sonication for 1 min with a 50% duty cycle and pelleted at 11000×g and 4° C. for 15 min. A reaction mixture consisting of 910 μl reaction buffer, 50 μl acetolactate, and 20 μl lysate was prepared in a cuvette. […]\nOnly 20% of the enzymes of the recombination library were active on NADH. After screening 1,000 clones using the NADH depletion assay at 340 nm, 26 KARI variants were selected for a rescreen by the high-throughput assay described in Example 14 and eight thereof were expressed in 25 ml LBamp medium in shake flasks according to the protocol for cell growth and protein expression in shake flasks as described in Example 14, purified according to the protocol for purification of KARI enzymes as described in Example 14, and NAD(P)H depletion at 340 nm was measured again. […] The KM values of variants Ec_llvC^2H10-his6 and Ec_llvC^6E6-his6 were measured and the catalytic efficiencies were calculated."}, "[2]": {"biological_target": "T2, E. coli KARI Ec_IlvC variant Ec_IlvC^B8-his6 (Q110V, S78D), SEQ ID NO: 27 (Escherichia coli, UniProt P05793, Q110V/S78D)", "T2 sequence (P05793 with tags, fused parts or gaps S78D/Q110V)": "T1 sequence (P05793 with tags, fused parts or gaps A71S/R76D/S78D/Q110A) with S71A, D76R, A110V", "assay": "KARI cuvette assay, purified Ec_IlvC^B8-his6", "assay_type": "biochemical", "experimental": "KARI cuvette assay: KARI activity was assayed kinetically by monitoring the decrease in NAD(P)H concentration by measuring the absorbance at 340 nm. A reaction buffer was prepared containing 250 mM potassium phosphate pH 7, 1 mM DTT and 10 mM MgCl2. Cell pellets were resuspended (0.25 g wet weight/mL buffer) in 250 mM potassium phosphate (KPi) buffer containing 1 mM DTT and 10 mM MgCl2. The resuspended cells were lysed by sonication for 1 min with a 50% duty cycle and pelleted at 11000×g and 4° C. for 15 min. A reaction mixture consisting of 910 μl reaction buffer, 50 μl acetolactate, and 20 μl lysate was prepared in a cuvette. The reaction was initiated by addition of 20 μL of 10 mM NAD(P)H. A substrate free control was conducted using reaction buffer without the addition of acetolactate.\nPurification of KARI: Cell pellets used for purification were resuspended in purification buffer A (20 mM Tris, 20 mM imidazol, 100 mM NaCl, 10 mM MgCl2, pH 7.4). KARI was purified by IMAC (Immobilized metal affinity chromatography) over a 1 ml Histrap High Performance (histrap HP) column pre-charged with Nickel (GE Healthcare) using an Akta FPLC system (GE Healthcare). […]"}},
  "note": "Numbering of substitutions follows the chain as printed.",
  "data": [
    {"compound": "NC(=O)C1=CN([C@@H]2O[C@H](COP(=O)(O)OP(=O)(O)OC[C@H]3O[C@@H](n4cnc5c(N)ncnc54)[C@H](O)[C@@H]3O)[C@@H](O)[C@H]2O)C=CC1", "note": "[NADH, nicotinamide adenine dinucleotide]", "values": [
      {"measurement": "kcat/KM", "setting": "[1]", "value": "60,322 M^−1 * s^−1"},
      {"measurement": "kcat/KM", "setting": "[2]; purified, acetolactate as substrate", "value": 31775, "unit": "M⁻¹ s⁻¹"},
      {"measurement": "(kcat/KM with NADH)/(kcat/KM of Ec_IlvC^his6 with NADPH)", "setting": "[2]; relative to Ec_IlvC^his6 with NADPH", "value": 36, "unit": "%"}
    ]}
  ]
}
